Results published in patent US6117833A, “Bleaching compositions and method for bleaching substrates directly with air” (priority 1998, dated 2000).
Entries after “also recorded” stand apart in the source; their conditions may differ.

Assays:
[1] = Bleaching of tea-stained (BC-1) swatches by aldehyde + NHPI + air in Tergotometer (change in reflectance); details: aldehyde 15 mM, NHPI 1 mM, carbonate buffer, 30 min, 25° C., 460 nm, average of 2 values (6 for * = Exceptional Bleaching Aldehyde)
Experimental: A general outline of the essential steps in our experimental protocol are shown below.
a) Measure the initial reflectance of the swatches (Ri).
b) Saturate the wash solution with air.
c) Wash, rinse and dry the swatches.
d) Measure the final reflectance of the swatches (Rf).
All work was conducted in a Tergotometer with 2L stainless steel pots. The swatches were dried flat on a rack in a Kenmore dryer. […] The conditions utilized were as follows:
Initiator N-Hydroxyphthalimide (NHPI, 1 mM)
Aldehyde Aldehyde (15 mM)
Each Tergotometer Pot was filled with 1 liter of milli-Q-water containing carbonate buffer solution which was saturated for 15 minutes with air under agitation at 25° C. Tea stained (BC-1) swatches were washed for 30 minutes in the presence of aldehyde, air and NHPI at pH=8 (25° C.). The corresponding controls (buffer alone, NHPI alone and aldehyde alone) were performed simultaneously. All swatches were rinsed twice for 3 minutes with agitation at 25° C. and dried flat on a rack in a Kenmore with soft heat for 30 minutes.
To quantify the degree of stain removal, the reflectance of 4 stained swatches (4 per pot) were measured before and after washing using a Gardner reflectometer (Model #2000) set at 460*nm (*UV filter). The change in reflectance (ΔR) was determined by taking the difference of the swatch before and after each washing. The standard deviation (σ) and ΔΔRave was assigned to each experimental group.
Rl =Initial reflectance of stained swatch before washing.
Rf =Final reflectance of stained swatch after washing.
ΔRaldehyde system+control -ΔRcontrol =ΔΔR
ΔΔRave =Represents the average bleaching by the aldehyde system.
In general, the larger the ΔΔRave value, the greater the bleaching and cleaning.
(σ)=[Σ^n aj -aa)^2 /N-I]^0.5
Σ^n =sum (aj -aa)^2 per measurement
N=number of measurements=8

[2] = Bleaching on BC-1 by 4-Ethylbenzaldehyde with various initiators; parameters: key to Δ(ΔR), #1 / Δ(ΔR), #2 / Δ(ΔR), #3 / Δ(ΔR), Average / ΔΔRave: Δ(ΔR): reflectance change of stained cloth relative to buffer ΔR; details: for cleaning / bleaching (in words): initiator alone or 4-EBA alone; for Δ(ΔR), Average / Δ(ΔR), #1 / Δ(ΔR), #2 / Δ(ΔR), #3: 1 mM, σav = 0.4; for Δ(ΔR), Average: average of #1-#3; for Δ(ΔR), #1: run #1; for Δ(ΔR), #2: run #2; for Δ(ΔR), #3: run #3
Experimental: A series of experiments were conducted to evaluate the bleaching effectiveness of NHPI and related imides. Table IV reports the effectiveness on tea stained cloth swatches by various imide initiators in combination with 4-ethylbenzaldehyde.
Value for Carbonate Buffer = ΔR
Value for Initiator = Δ(ΔR)
Value for 4EBA + Initiator = Δ(ΔR)
* = Statistically significant bleaching over buffer alone (σav

| Compound | ΔΔRave on BC-1 at pH = 8 [1] | other results |
| --- | --- | --- |
| CCc1ccc(C=O)cc1 [4-Ethylbenzaldehyde] | 11.5 | cleaning / bleaching (in words) [2]: small and inconsistent; also recorded: do not effectively clean stubborn tea stains |
| CCCCCC(C=O)=Cc1ccccc1 [α-Amylcinnamaldehyde] | 1.0 | – |
| COc1ccc(C=O)cc1 [4-Methoxybenzaldehyde] | 1.2 | – |
| O=Cc1ccccc1Cl [2-Chlorobenzaldehyde] | 8.7 | – |
| CC(C)(C)c1cc(C=O)cc(C(C)(C)C)c1O [4-Hydroxy-3,5-t-Butylbenzaldehyde] | 0.0 | – |
| O=Cc1cc(Cl)cc(Cl)c1 [3,5-Dichlorobenzaldehyde] | -0.2 | – |
| COc1cccc(C=O)c1 [3-Methoxybenzaldehyde] | 0.6 | – |
| O=C1c2ccccc2C(=O)N1O [NHPI, N-hydroxyphthalimide] | – | ΔΔRave ([2]; initiator alone): -0.2; cleaning / bleaching (in words) [2]: did not provide a cleaning benefit; Δ(ΔR), Average ([2]; initiator alone): -0.3; Δ(ΔR), #1 ([2]; initiator alone): -0.1; Δ(ΔR), #2 ([2]; initiator alone): 0.1; Δ(ΔR), #3 ([2]; initiator alone): -0.7 |
| C/C=C/C=O [Crotonaldehyde] | 0.7 | – |
| O=Cc1ncc[nH]1 [2-Imidazolecarboxy Aldehyde] | -0.5 | – |
| O=CC=O [Glyoxal] | 0.6 | – |
| O=C/C=C/c1ccccc1 [trans-Cinnamaldehyde] | 1.2 | – |
| Cc1ccccc1C=O [2-Methylbenzaldehyde] | 5.8 | – |
| O=Cc1ccc([N+](=O)[O-])cc1 [4-Nitrobenzaldehyde] | 0.3 | – |
| COc1cc(C=O)cc(OC)c1 [3,5-Dimethoxybenzaldehyde] | 1.4 | – |
| O=CN1CCOCC1 [4-Formylmorpholine] | 0.1 | – |
| CCOc1ccc(C=O)cc1 [4-Ethoxybenzaldehyde] | 0.4 | – |
| O=Cc1c(Cl)cccc1Cl [2,6-Dichlorobenzaldehyde] | 0.0 | – |
| O=Cc1cccc(C=O)c1 [Phenyl-1,3-dicarboxyaldehyde] | 0.2 | – |
| O=Cc1ccc(C=O)cc1 [Phenyl-1,4-dicarboxyaldehyde] | -1.1 | – |
| O=C1CCC(=O)N1O [NHSI] | – | Δ(ΔR), Average ([2]; initiator alone): 0.0; Δ(ΔR), #1 ([2]; initiator alone): 0.0; Δ(ΔR), #2 ([2]; initiator alone): 0.0; Δ(ΔR), #3 ([2]; initiator alone): 0.0 |
| O=Cc1ccc(C(=O)O)cc1 [4-Carboxybenzaldehyde] | -0.1 | – |
| O=Cc1ccc(O)cc1 [4-Hydroxybenzaldehyde] | 0.7 | – |
| Cc1ccc(C=O)cc1C [3,4-Dimethylbenzaldehyde] | 10.3 | – |
| O=Cc1ccc(S(=O)(=O)O)o1 [5-Formylfuran-2 sulfonic Acid] | -3.3 | – |

| Compound | ΔΔRave on BC-1 at pH = 8 [1] | other results |
| --- | --- | --- |
| Cc1ccc(C=O)c(C)c1 [2,4-Dimethylbenzaldehyde] | 8.9 | – |
| Cc1cc(C)cc(C=O)c1 [3,5-Dimethylbenzaldehyde] | 9.3 | – |
| CCCOc1ccc(C=O)cc1 [4-Propyoxybenzaldehyde] | 0.2 | – |
| O=Cc1ccc(C(F)(F)F)cc1 [4-Trifluoromethylbenzaldehyde] | 0.3 | – |
| O=Cc1ccccc1C(F)(F)F [2-Trifluoromethylbenzaldehyde] | 10.2 | – |
| CCCCCCOc1ccc(C=O)cc1 [4-Hexyloxybenzaldehyde] | 0.5 | – |
| O=CCCCC=O | 0.7 | – |
| O=Cc1ccccc1Br [2-Bromobenzaldehyde] | 2.1 | – |
| O=Cc1ccccc1 [Benzaldehyde] | 1.5 | – |
| O=Cc1ccccc1O [2-Hydroxybenzaldehyde] | 0.4 | – |
| O=CC(O)CO (racemic) [DL-Glyceraldehyde] | -0.8 | – |
| O=Cc1ccc(Br)cc1 [4-Bromobenzaldehyde] | 0.1 | – |
| O=Cc1cccc(O)c1 [3-Hydroxybenzaldehyde] | 0.8 | – |
| O=Cc1ccco1 [2-Furfural] | 0.2 | – |
| Cc1ccc(C)c(C=O)c1 [2,5-Dimethylbenzaldehyde] | 8.8 | – |
| CCCCCCCCCCCC=O [n-Dodecylaldehyde] | 0.2 | – |
| CCCCCCCCCC=O [n-Decylaldehyde] | 0.6 | – |
| Cc1cc(C)c(C=O)c(C)c1 [2,4,6-Trimethylbenzaldehyde] | 6.3 | – |
| O=Cc1cc(F)cc(F)c1 [3,5-Difluorobenzaldehyde] | 0.9 | – |
| O=Cc1ccc(F)cc1 [4-Fluorobenzaldehyde] | 1.6 | – |
| COc1ccc(C=O)cc1C [4-Methoxy-3-Methylbenzaldehyde] | 0.4 | – |
| O=C[C@H](O)[C@@H](O)[C@H](O)[C@H](O)CO [D-Glucose] | 0.6 | – |
| O=Cc1ccccc1C=O [Phenyl-1,2-dicarboxyaldehyde] | 1.1 | – |
| O=Cc1c(F)c(F)cc(F)c1F [2,3,5,6-Tetrafluorobenzaldehyde] | 0.3 | – |
| O=Cc1cccc(Cl)c1 [3-Chlorobenzaldehyde] | 1.9 | – |

| Compound | ΔΔRave on BC-1 at pH = 8 [1] | other results |
| --- | --- | --- |
| O=Cc1ccccc1[N+](=O)[O-] [2-Nitrobenzaldehyde] | 0.1 | – |
| O=Cc1ccccc1S(=O)(=O)O [1-Formylbenzene-2-sulfonic acid] | 0.5 | – |
| O=Cc1cccc(Oc2ccccc2)c1 [3-Phenoxybenzaldehyde] | 1.1 | – |
| Cc1ccc(C=O)cc1 [4-Methylbenzaldehyde] | 8.3 | – |
| O=C1C=CC(=O)N1O [NHMI] | – | Δ(ΔR), Average ([2]; initiator alone): 0.3; Δ(ΔR), #1 ([2]; initiator alone): 0.6; Δ(ΔR), #2 ([2]; initiator alone): 0.1; Δ(ΔR), #3 ([2]; initiator alone): 0.3 |
| CC(C=O)c1ccccc1 (stereo not drawn) [2-Phenylpropionaldehyde] | 0.1 | – |
| O=Cc1ccc(Cl)cc1 [4-Chlorobenzaldehyde] | -0.1 | – |
| O=Cc1cc([N+](=O)[O-])cc([N+](=O)[O-])c1 [3,5-Dinitrobenzaldehyde] | 0.1 | – |
| O=Cc1cccc(C(F)(F)F)c1 [3-Trifluoromethylbenzaldehyde] | 3.1 | – |
| CC(C)(C)c1ccc(C=O)cc1 [4-t-Butylbenzaldehyde] | 1.3 | – |
| O=C1CC(S(=O)(=O)O)C(=O)N1O (stereo not drawn) [NHSISA] | – | Δ(ΔR), Average ([2]; initiator alone): 0.2; Δ(ΔR), #1 ([2]; initiator alone): 0.2; Δ(ΔR), #2 ([2]; initiator alone): 0.5; Δ(ΔR), #3 ([2]; initiator alone): 0.0 |
| CCCC=O [n-Butyraldehyde] | 0.6 | – |
| CN(C)c1ccc(C=O)cc1 [4-Dimethylaminobenzaldehyde] | 1.0 | – |
| COc1ccccc1C=O [2-Methoxybenzaldehyde] | 0.8 | – |
| O=Cc1cccc(F)c1 [3-Fluorobenzaldehyde] | 0.6 | – |
| CC1(C)CCCC(C)(C)N1[O] [TEMPO] | – | Δ(ΔR), Average ([2]; initiator alone): 1.8; Δ(ΔR), #1 ([2]; initiator alone): 1.8; Δ(ΔR), #2 ([2]; initiator alone): 1.8; Δ(ΔR), #3 ([2]; initiator alone): 1.9 |
| CC(C)c1ccc(C=O)cc1 [4-Isopropylbenzaldehyde] | 1.5 | – |
| CCCCCCCCCCC=O [n-Undecylaldehyde] | 0.0 | – |
| O=Cc1cccc(Br)c1 [3-Bromobenzaldehyde] | 3.2 | – |
| CC(C)C=O [Isobutyraldehyde] | 0.4 | – |
| Cc1ccc(Oc2cccc(C=O)c2)cc1 [3-(4-Methylphenoxy)benzaldehyde] | 0.0 | – |
| CCCCCCC=O [n-Heptyladehyde] | 0.8 | – |
| O=Cc1ccccc1F [2-Fluorobenzaldehyde] | 1.0 | – |
| Cc1cccc(C=O)c1 [3-Methylbenzaldehyde] | 10.0 | – |
| O=Cc1cccc([N+](=O)[O-])c1 [3-Nitrobenzaldehyde] | 1.2 | – |
